Experimental data taken from patent EP4799701A2, “PYRIMID-2-YL-PYRAZOLE COMPOUNDS AS IRAK INHIBITORS” (Rigel Pharmaceuticals, Inc., priority 2022, dated 2023).

What was measured:
TLR4-induced IL-23 = assay: IL23-p19 ELISA, dendritic cells (PBMC-derived), LPS stimulated; assay type: cell-based; details: human primary dendritic cells (DC); result in words
Procedure: Compound Screening Using DC Cells
• Human PBMC cells (All Cells, Cat No. PB002) • RPMI growth media containing 10% FBS • IFNγ (Peprotech, Cat No. 300-02) • GMCSF (Peprotech, Cat No. 300-03) and IL4 (Peprotech Cat No. 200-04) • White clear bottom 96 well plates (Fisher, Cat No. 07-200-587, Corning #3903) • LPS (Make 2.5 mg/ml Stock in PBS) from Sigma Aldrich (Cat No. L2018-5MG) • Cell Titer Glo reagent (Promega, Cat No. G7573) • Positive controls, IKK2VI inhibitor (Calbiochem, Cat No. 401483)
Human PBMC cells (400 million) obtained from the vendor were transferred into a T-175 flask containing 15 ml RPMI media (10% FBS) and incubate for 2 hours at 37 °C. […]
155 µl of the supernatant was harvested from each well carefully (without the tip touching the bottom of the well) and to the remaining 50 µl / well of the cell culture plate was added 50 µl of Cell Titer Glo reagent. The mixture was incubated for 1-2 minutes on a shaker and the plate was read for luminescence intensity to determine the compound cytotoxicity. […]
After 45 minutes, the plates were washed with TBST 4X and 100 ul / well Super Signal ELISA Pico Chemiluminescent Substrate from Pierce (3.5 ml A + 3.5 ml B + 3.5 ml MQ water) was added. The plates were shaken for 1-2 minutes then read on a plate reader. […]

[1] = Plasma protein binding, free drug comparison across species; assay type: in vitro ADME; details: free drug in rat, dog, monkey and human proteins
Procedure: Brain and plasma drug binding were performed by equilibrium dialysis using the Rapid Equilibrium Dialysis (RED) device. Briefly, 300 µL of plasma or brain homogenate (1 brain /3 buffer) containing drug (5 µM) was equilibrated (4-18 h) against 500 µL of buffered saline. After incubation, the concentration of drug in plasma/brain homogenate and buffer was determined by LC-MS/MS.
Higher free drug in plasma and brain allow for more drug to interact with the target. [drawing 34]
From a free drug perspective compound I-1 was approximately 6-times more free than Comparision-1 in rat, dog, monkey and human proteins.

TLR7-induced TNF-α = TLR7-induced TNF-α in human PBMC (resiquimod); assay type: cell-based; details: human PBMCs; result in words
Procedure: Assay Protocol: TLR7-induced TNF-α in human Peripheral Blood Mononuclear Cells (PBMC).
• Corning™ Costar™ 96-Well, Cell Culture-Treated, U-Shaped-Bottom Microplate (Fisher, Cat# 07-200-95) • Human PBMC (ALL Cells, Cat# PB002) • Resiquimod (InvivoGen, Cat No. tlrl-r848) • Human TNF-α DuoSet ELISA Kit (R&D Systems, Cat# DY210) • Recombinant Human IFN-β (Peprotech, Cat# 300-02BC) • RPMI with 10% FBS • Axygen 96well, 1.1 mL, sterile (VWR International, Cat# 47734-788)
Human peripheral blood mononuclear cells (PBMC) were seeded at 100,000 cells per well in 100 µL of RPMI with 10% FCS and primed overnight with 8 ng/ml of IFN-β at 37 °C, 5% CO2. Compound was serially diluted in DMSO from 2 mM in 3-fold dilutions, and then diluted 1:100 in RPMI 1640 complete media with 10% FBS (2 x stock). The PBMCs were pre-incubated with test compound for 1 hour at 37 °C, 5% CO2 by adding 100 µL of RPMI media containing 2x concentrated test compound per well (0.5% final DMSO concentration).
The PBMCs were stimulated with resiquimod (10 µL per well of 21x concentrated resiquimod solution in RPMI media to give a final concentration of 0.1 µg/ml) at 37 °C, 5% CO2 for an additional 18 hours. 100 µL of supernatant per well was harvested to measure TNF-α. TNF-α was quantitated using DuoSet ELISA Kit per manufacturer's protocol.

TLR2- induced TNF-α = assay: TLR2-induced TNF-α in human primary dendritic cells; assay type: cell-based; details: human primary dendritic cells (DC); result in words
[2] = system: IL-1β-induced production of the cytokine IL-6; assay: IL-1β-induced IL-6 in primary human endothelial cells; assay type: cell-based; details: result in words

**Q.** What does the source list for `CCO[C@H]1CC[C@H](n2cc(NC(=O)c3csc(-c4cn[nH]c4)n3)c(-c3ncccn3)n2)CC1` [Compound I-1, N-(1-((1r,4r)-4-ethoxycyclohexyl)-3-(pyrimidin-2-yl)-1H-pyrazol-4-yl)-2-(1H-pyrazol-4-yl)thiazole-4-carboxamide]?
**A.** TLR4-induced IL-23 production (TLR4-induced IL-23): blocks; more free than Comparision-1 [1]: approximately 6 times; TLR7-dependent cytokine production (TLR7-induced TNF-α): potent inhibitor; TLR2- induced TNF-α production (TLR2- induced TNF-α): blocks; IL-1β-induced production of the cytokine IL-6 [2]: potently inhibits
